Assay results: patent US20070191350A1, “Combinations comprising alpha-2-delta ligands” (Pifizer Inc., priority 2004, published 2007)

Test: Plasma concentration (Cmax) of gabapentin in the rat

NCC1(CC(=O)O)CCCCC1 [gabapentin, 1-(aminomethyl)-cyclohexylacetic acid]
Cmax: 520 to 10500 ng/mL
